Activity calls are given as the source filed them. No cut-off for these calls is given here.
Tests used:
MDA-MB-231 = assay: Antiproliferative activity against human MDA-MB-231 cells assessed as inhibition of cell viability incubated for 48 hrs by CCK8 method; format: functional, cell-based; conditions: MDA-MB-231, 48 h
MCF7 = assay: Antiproliferative activity against human MCF7 cells assessed as inhibition of cell viability incubated for 48 hrs by CCK8 method; format: functional, cell-based; conditions: MCF7, 48 h
CNE-2 = assay: Antiproliferative activity against human CNE-2 cells assessed as inhibition of cell viability incubated for 48 hrs by CCK8 method; format: functional, cell-based; conditions: CNE-2, 48 h
[1] = target: T1, Cyclin-dependent kinase 9 (Homo sapiens, UniProt P50750); assay: Inhibition of CDK9 (unknown origin) incubated for 10 mins
[2] = Stability of the compound in artificial intestinal fluid assessed as compound remaining measured upto 8 hrs by HPLC analysis; format: ADME; conditions: read-out: Stability
MOLM-13 [3] = assay: Antiproliferative activity against human MOLM-13 cells assessed as inhibition of cell viability incubated for 48 hrs by CCK8 method; format: functional, cell-based; conditions: MOLM-13, 48 h
[4] = Stability in human plasma assessed as compound remaining measured upto 4 hrs by HPLC analysis; format: ADME, cell-free; conditions: read-out: Stability
A549 = assay: Antiproliferative activity against human A549 cells assessed as inhibition of cell viability incubated for 48 hrs by CCK8 method; format: functional, cell-based; conditions: A549, 48 h
[5] = Stability of the compound in artificial gastric fluid assessed as compound remaining measured upto 8 hrs by HPLC analysis; format: ADME; conditions: read-out: Stability
[6] = target: T1, Cyclin-dependent kinase 9; assay: Inhibition of CDK9 (unknown origin) at 20 uM incubated for 10 mins relative to control
HeLa = assay: Antiproliferative activity against human HeLa cells assessed as inhibition of cell viability incubated for 48 hrs by CCK8 method; format: functional, cell-based
[7] = Stability in rat liver microsomes assessed as compound remaining measured upto 3 hrs by HPLC analysis; format: ADME, Microsome; conditions: read-out: Stability
HepG2 = assay: Antiproliferative activity against human HepG2 cells assessed as inhibition of cell viability incubated for 48 hrs by CCK8 method; format: functional, cell-based; conditions: HepG2, 48 h
HCT-116 = assay: Antiproliferative activity against human HCT-116 cells assessed as inhibition of cell viability incubated for 48 hrs by CCK8 method; format: functional, cell-based; conditions: HCT-116, 48 h
MOLM-13 [8] = assay: Induction of apoptosis in human MOLM-13 cells assessed as viable cells at 10 uM incubated for 24 hrs by Annexin V-FITC and propidium iodide staining based flow cytometry analysis (reference value: 92.7%); format: functional; conditions: read-out: Activity
MOLM-13 [9] = assay: Induction of apoptosis in human MOLM-13 cells assessed as necrotic cells at 10 uM incubated for 24 hrs by Annexin V-FITC and propidium iodide staining based flow cytometry analysis (reference value: 0.84%); format: functional
MOLM-13 [10] = assay: Induction of apoptosis in human MOLM-13 cells assessed as late apoptotic cells at 10 uM incubated for 24 hrs by Annexin V-FITC and propidium iodide staining based flow cytometry analysis (reference value: 3.65%); format: functional
MOLM-13 [11] = assay: Induction of apoptosis in human MOLM-13 cells assessed as early apoptotic cells at 10 uM incubated for 24 hrs by Annexin V-FITC and propidium iodide staining based flow cytometry analysis (reference value: 2.86%); format: functional
MOLM-13 [12] = assay: Induction of apoptosis in human MOLM-13 cells assessed as viable cells at 2.5 uM incubated for 24 hrs by Annexin V-FITC and propidium iodide staining based flow cytometry analysis (reference value: 92.7%); format: functional; conditions: read-out: Activity
MOLM-13 [13] = assay: Induction of apoptosis in human MOLM-13 cells assessed as late apoptotic cells at 5 uM incubated for 24 hrs by Annexin V-FITC and propidium iodide staining based flow cytometry analysis (reference value: 3.65%); format: functional
[14] = target: T1, Cyclin-dependent kinase 9; assay: Inhibition of CDK9 in human MOLM-13 cells assessed as decrease in Mcl-1 expression incubated for 24 hrs by Western blot analysis; format: cell-based; conditions: dose 10-25 µM
[15] = target: T1, Cyclin-dependent kinase 9; assay: Inhibition of CDK9 in human MOLM-13 cells assessed as suppression of p-RNAP II CTD (Ser2 residue) phosphorylation incubated for 24 hrs by Western blot analysis; format: cell-based; conditions: dose 10-25 µM
MOLM-13 [16] = assay: Induction of apoptosis in human MOLM-13 cells assessed as early apoptotic cells at 2.5 uM incubated for 24 hrs by Annexin V-FITC and propidium iodide staining based flow cytometry analysis (reference value: 2.86%); format: functional
MOLM-13 [17] = assay: Induction of apoptosis in human MOLM-13 cells assessed as early apoptotic cells at 5 uM incubated for 24 hrs by Annexin V-FITC and propidium iodide staining based flow cytometry analysis (reference value: 2.86%); format: functional
MOLM-13 [18] = assay: Induction of apoptosis in human MOLM-13 cells incubated for 24 hrs by Annexin V-FITC and propidium iodide staining based flow cytometry analysis; format: functional, cell-based; conditions: dose 2.5-10 µM
MOLM-13 [19] = assay: Induction of apoptosis in human MOLM-13 cells assessed as necrotic cells at 2.5 uM incubated for 24 hrs by Annexin V-FITC and propidium iodide staining based flow cytometry analysis (reference value: 0.84%); format: functional
[20] = target: T1, Cyclin-dependent kinase 9; assay: Inhibition of CDK9 in human MOLM-13 cells assessed as increase in cleaved PARP level at 10 to 25 uM incubated for 24 hrs by Western blot analysis; format: cell-based; conditions: dose 10-25 µM
MOLM-13 [21] = assay: Induction of apoptosis in human MOLM-13 cells assessed as late apoptotic cells at 2.5 uM incubated for 24 hrs by Annexin V-FITC and propidium iodide staining based flow cytometry analysis (reference value: 3.65%); format: functional
MOLM-13 [22] = assay: Induction of apoptosis in human MOLM-13 cells assessed as viable cells at 5 uM incubated for 24 hrs by Annexin V-FITC and propidium iodide staining based flow cytometry analysis (reference value: 92.7%); format: functional; conditions: read-out: Activity
MOLM-13 [23] = assay: Induction of apoptosis in human MOLM-13 cells assessed as necrotic cells at 5 uM incubated for 24 hrs by Annexin V-FITC and propidium iodide staining based flow cytometry analysis (reference value: 0.84%); format: functional

T1 sequence (P50750 whole entry): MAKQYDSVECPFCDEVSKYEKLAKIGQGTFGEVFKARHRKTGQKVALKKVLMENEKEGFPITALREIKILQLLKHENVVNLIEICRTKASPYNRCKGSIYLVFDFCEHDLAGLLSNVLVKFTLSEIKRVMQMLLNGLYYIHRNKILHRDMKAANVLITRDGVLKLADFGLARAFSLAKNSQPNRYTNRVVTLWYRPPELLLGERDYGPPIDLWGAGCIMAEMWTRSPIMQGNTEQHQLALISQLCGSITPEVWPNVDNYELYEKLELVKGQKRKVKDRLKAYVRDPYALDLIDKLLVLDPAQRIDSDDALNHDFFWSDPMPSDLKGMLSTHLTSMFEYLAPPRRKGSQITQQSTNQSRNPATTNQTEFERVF

Structure (SMILES): Nc1nc(NCCc2ccccc2)nc(-c2cc(Cl)ccc2O)n1
- IC50 (MDA-MB-231): 14.5 µM
- IC50 (MCF7): 29 µM
- IC50 (CNE-2): > 50 µM
- IC50 [1]: 0.504 µM
- remaining at 8 h [2]: > 90%
- IC50 (MOLM-13 [3]): 4.58 µM
- remaining at 4 h [4]: > 90%
- IC50 (A549): 28.2 µM
- remaining at 8 h [5]: > 90%
- inhibition [6]: 92.2%
- IC50 (HeLa): 25.1 µM
- remaining at 3 h [7]: > 90%
- IC50 (HepG2): 29 µM
- IC50 (HCT-116): > 50 µM

Structure (SMILES): CN1CC[C@H](c2c(O)cc(O)c3c(=O)cc(-c4ccccc4Cl)oc23)[C@H](O)C1 [ALVOCIDIB]
- IC50 (MDA-MB-231): 0.06 µM
- IC50 (MCF7): 0.71 µM
- viability at 10 µM (MOLM-13 [8]): 44.5%
- Activity (MOLM-13 [9]): 22.3%
- IC50 (CNE-2): 0.12 µM
- IC50 (MOLM-13 [3]): 0.07 µM
- IC50 (A549): 0.1 µM
- IC50 (HeLa): 0.15 µM
- IC50 (HepG2): 0.56 µM
- Activity (MOLM-13 [10]): 7.81%
- IC50 (HCT-116): 0.03 µM
- Activity (MOLM-13 [11]): 25.5%

Structure (SMILES): Nc1nc(Nc2ccccc2)nc(-c2cc(Cl)ccc2O)n1
- viability at 2.5 µM (MOLM-13 [12]): 92.1%
- Activity (MOLM-13 [13]): 3.96%
- IC50 (MDA-MB-231): 11.7 µM
- inhibition [14]: Dose-Dependent Effect
- IC50 (MCF7): 23.5 µM
- inhibition [15]: Dose-Dependent Effect
- viability at 10 µM (MOLM-13 [8]): 87.1%
- Activity (MOLM-13 [9]): 1.38%
- IC50 (CNE-2): 34.5 µM
- IC50 [1]: 0.295 µM
- Activity (MOLM-13 [16]): 3.2%
- Activity (MOLM-13 [17]): 3.97%
- remaining at 8 h [2]: > 90%
- Activity (MOLM-13 [18]): Dose-Dependent Effect
- IC50 (MOLM-13 [3]): 3.92 µM
- Activity (MOLM-13 [19]): 0.77%
- inhibition [20]: Active
- remaining at 4 h [4]: > 90%
- IC50 (A549): > 50 µM
- Activity (MOLM-13 [21]): 3.88%
- remaining at 8 h [5]: > 90%
- inhibition [6]: 88.4%
- IC50 (HeLa): 2.53 µM
- viability at 5 µM (MOLM-13 [22]): 90.9%
- remaining at 3 h [7]: > 90%
- Activity (MOLM-13 [23]): 1.12%
- IC50 (HepG2): > 50 µM
- Activity (MOLM-13 [10]): 5.43%
- IC50 (HCT-116): 22.2 µM
- Activity (MOLM-13 [11]): 6.13%

Structure (SMILES): CCNc1nc(N)nc(-c2cc(Cl)ccc2O)n1
- IC50 (MDA-MB-231): 21.2 µM
- IC50 (MCF7): 18.9 µM
- IC50 (CNE-2): 30.4 µM
- IC50 [1]: 0.335 µM
- IC50 (MOLM-13 [3]): 15.2 µM
- IC50 (A549): > 50 µM
- inhibition [6]: 93.7%
- IC50 (HeLa): 7.38 µM
- IC50 (HepG2): 49.2 µM
- IC50 (HCT-116): 26.6 µM

Structure (SMILES): CCCCNc1nc(N)nc(-c2cc(Cl)ccc2O)n1
- IC50 (MDA-MB-231): 16 µM
- IC50 (MCF7): 11.3 µM
- IC50 (CNE-2): 17 µM
- IC50 [1]: 0.214 µM
- IC50 (MOLM-13 [3]): 13.5 µM
- IC50 (A549): 19.2 µM
- inhibition [6]: 93.6%
- IC50 (HeLa): 13.7 µM
- IC50 (HepG2): 40.9 µM
- IC50 (HCT-116): 27.2 µM

Structure (SMILES): O=C(Cn1cc(Br)c(=O)n(CC(=O)Nc2ccc(Br)cn2)c1=O)Nc1ccc(Br)cn1
- IC50 (MDA-MB-231): 8.34 µM
- IC50 (MCF7): 6.14 µM
- IC50 (CNE-2): 28.3 µM
- IC50 [1]: 0.219 µM
- remaining at 8 h [2]: > 90%
- IC50 (MOLM-13 [3]): 11.8 µM
- remaining at 4 h [4]: > 90%
- IC50 (A549): 15.3 µM
- remaining at 8 h [5]: > 90%
- inhibition [6]: 76.4%
- IC50 (HeLa): 6.61 µM
- remaining at 3 h [7]: > 90%
- IC50 (HepG2): > 50 µM
- IC50 (HCT-116): 3.22 µM

Structure (SMILES): O=C(NCCc1c[nH]c2ccc(Cl)cc12)c1cc(-c2cccnc2)n[nH]1
- IC50 (MDA-MB-231): 28.2 µM
- IC50 (MCF7): 20.9 µM
- IC50 (CNE-2): 17.1 µM
- IC50 (MOLM-13 [3]): 2.52 µM
- IC50 (A549): > 50 µM
- inhibition [6]: 22.7%
- IC50 (HeLa): 29.4 µM
- IC50 (HepG2): 19.8 µM
- IC50 (HCT-116): 15.6 µM

Source: ChEMBL document CHEMBL5360523, “Ligand- and structure-based identification of novel CDK9 inhibitors for the potential treatment of leukemia” (Bioorg Med Chem, 2022)
